Assay results published in ChEMBL document CHEMBL5465560, “Selectivity Literature for EUbOPEN Chemogenomic Library” (2024).

Key:
[1] = target: Serine/threonine-protein kinase PAK 3 (Homo sapiens) (UniProt O75914); assay: Selectivity interaction (KinomeScan (DiscoverX)) EUB0000229b PAK3; conditions: at 10 µM
[2] = target: Serine/threonine-protein kinase 25 (Homo sapiens) (UniProt O00506); assay: Selectivity interaction (KinomeScan (DiscoverX)) EUB0001079a STK25; conditions: at 1 µM
[3] = target: Mitogen-activated protein kinase kinase kinase 9 (Homo sapiens) (UniProt P80192); assay: Selectivity interaction (Kinase panel (Z-LYTE Assay)) EUB0001632a MAP3K9; conditions: at 10 µM
[4] = target: Ribosomal protein S6 kinase alpha-5 (Homo sapiens) (UniProt O75582); assay: Selectivity interaction (Kinase panel (Z-LYTE Assay)) EUB0001632a RPS6KA5; conditions: at 10 µM
Chain of Ribosomal protein S6 kinase alpha-5 (Homo sapiens) (O75582 whole entry, looked up): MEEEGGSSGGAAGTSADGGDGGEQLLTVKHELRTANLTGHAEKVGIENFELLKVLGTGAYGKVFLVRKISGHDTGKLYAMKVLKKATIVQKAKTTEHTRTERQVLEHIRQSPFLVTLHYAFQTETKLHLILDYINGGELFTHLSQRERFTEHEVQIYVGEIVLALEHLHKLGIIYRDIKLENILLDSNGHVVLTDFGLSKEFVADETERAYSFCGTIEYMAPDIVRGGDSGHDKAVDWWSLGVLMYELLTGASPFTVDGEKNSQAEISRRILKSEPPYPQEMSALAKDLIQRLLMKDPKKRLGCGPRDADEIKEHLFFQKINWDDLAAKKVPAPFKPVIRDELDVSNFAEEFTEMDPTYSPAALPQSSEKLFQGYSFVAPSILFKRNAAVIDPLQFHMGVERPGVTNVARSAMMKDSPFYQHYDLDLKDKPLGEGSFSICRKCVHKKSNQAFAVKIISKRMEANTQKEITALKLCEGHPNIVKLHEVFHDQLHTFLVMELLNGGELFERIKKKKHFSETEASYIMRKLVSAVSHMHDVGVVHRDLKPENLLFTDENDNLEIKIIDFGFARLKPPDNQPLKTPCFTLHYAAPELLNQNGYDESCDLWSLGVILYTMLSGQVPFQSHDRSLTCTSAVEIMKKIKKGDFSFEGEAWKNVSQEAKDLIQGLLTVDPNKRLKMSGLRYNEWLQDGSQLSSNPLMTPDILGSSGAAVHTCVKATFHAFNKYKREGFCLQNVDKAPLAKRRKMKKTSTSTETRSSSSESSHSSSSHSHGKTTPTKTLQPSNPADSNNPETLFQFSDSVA

[5] = target: Serine/threonine-protein kinase 25 (Homo sapiens) (UniProt O00506); assay: Selectivity interaction (Kinase panel (Z-LYTE Assay)) EUB0001632a STK25; conditions: at 10 µM
[6] = target: TRAF2 and NCK-interacting protein kinase (Homo sapiens) (UniProt Q9UKE5); assay: Selectivity interaction (LanthaScreen Eu Kinase Binding Assay) EUB0001632a TNIK; conditions: at 10 µM
[7] = target: Cyclin-dependent kinase-like 1 (Homo sapiens) (UniProt Q00532); assay: Selectivity interaction (KinomeScan (DiscoverX)) EUB0000666a CDKL1; conditions: at 10 µM
[8] = target: Phosphatidylinositol 4,5-bisphosphate 3-kinase catalytic subunit alpha isoform (Homo sapiens) (UniProt P42336); assay: (§1) Selectivity interaction (KinomeScan (DiscoverX)) EUB0000666a PIK3CA; conditions: at 10 µM
[9] = system: Phosphatidylinositol 4,5-bisphosphate 3-kinase catalytic subunit alpha isoform (Homo sapiens), P42336 [E545K]; assay: as §1; conditions: at 10 µM
Chain of Phosphatidylinositol 4,5-bisphosphate 3-kinase catalytic subunit alpha isoform (Homo sapiens), P42336 [E545K] (P42336 whole entry E545K, canonical isoform): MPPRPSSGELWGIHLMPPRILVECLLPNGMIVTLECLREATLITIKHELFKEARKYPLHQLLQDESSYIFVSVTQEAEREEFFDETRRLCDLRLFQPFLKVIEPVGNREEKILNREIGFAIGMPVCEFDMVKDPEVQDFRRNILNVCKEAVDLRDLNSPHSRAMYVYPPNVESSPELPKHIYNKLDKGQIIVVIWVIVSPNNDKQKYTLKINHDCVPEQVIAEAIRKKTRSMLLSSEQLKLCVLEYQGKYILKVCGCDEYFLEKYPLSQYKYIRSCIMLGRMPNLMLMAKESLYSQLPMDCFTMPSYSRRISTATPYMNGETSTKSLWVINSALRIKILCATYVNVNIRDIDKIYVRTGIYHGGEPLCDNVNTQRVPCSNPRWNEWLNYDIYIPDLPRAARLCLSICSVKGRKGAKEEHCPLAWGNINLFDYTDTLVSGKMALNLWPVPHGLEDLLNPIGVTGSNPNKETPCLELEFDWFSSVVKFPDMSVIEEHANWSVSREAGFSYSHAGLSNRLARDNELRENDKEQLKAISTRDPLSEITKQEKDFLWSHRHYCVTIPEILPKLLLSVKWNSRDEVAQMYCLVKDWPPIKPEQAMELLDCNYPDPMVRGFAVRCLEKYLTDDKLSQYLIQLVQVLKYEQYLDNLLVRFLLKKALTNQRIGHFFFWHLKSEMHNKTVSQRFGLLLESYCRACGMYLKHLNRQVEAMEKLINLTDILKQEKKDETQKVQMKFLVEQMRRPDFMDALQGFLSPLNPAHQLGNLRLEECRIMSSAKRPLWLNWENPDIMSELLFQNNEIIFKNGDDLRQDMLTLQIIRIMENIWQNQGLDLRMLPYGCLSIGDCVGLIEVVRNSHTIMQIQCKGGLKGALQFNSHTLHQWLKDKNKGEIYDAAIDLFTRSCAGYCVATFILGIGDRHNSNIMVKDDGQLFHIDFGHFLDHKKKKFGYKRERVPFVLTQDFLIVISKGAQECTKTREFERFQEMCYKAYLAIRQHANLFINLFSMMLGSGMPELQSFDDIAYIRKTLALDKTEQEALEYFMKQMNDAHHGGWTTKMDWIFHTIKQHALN

[10] = system: Phosphatidylinositol 4,5-bisphosphate 3-kinase catalytic subunit alpha isoform (Homo sapiens), P42336 [H1047L]; assay: as §1; conditions: at 10 µM
Chain of Phosphatidylinositol 4,5-bisphosphate 3-kinase catalytic subunit alpha isoform (Homo sapiens), P42336 [H1047L] (P42336 whole entry H1047L, canonical isoform): as the sequence (P42336 whole entry E545K, canonical isoform) above, with K545E, H1047L counted along it

[11] = system: Phosphatidylinositol 4,5-bisphosphate 3-kinase catalytic subunit alpha isoform (Homo sapiens), P42336 [H1047Y]; assay: as §1; conditions: at 10 µM
[12] = system: Phosphatidylinositol 4,5-bisphosphate 3-kinase catalytic subunit alpha isoform (Homo sapiens), P42336 [M1043I]; assay: as §1; conditions: at 10 µM
[13] = target: T1, Serine/threonine-protein kinase STK11 (Homo sapiens) (UniProt Q15831); conditions: at 10 µM
T1 sequence (whole entry): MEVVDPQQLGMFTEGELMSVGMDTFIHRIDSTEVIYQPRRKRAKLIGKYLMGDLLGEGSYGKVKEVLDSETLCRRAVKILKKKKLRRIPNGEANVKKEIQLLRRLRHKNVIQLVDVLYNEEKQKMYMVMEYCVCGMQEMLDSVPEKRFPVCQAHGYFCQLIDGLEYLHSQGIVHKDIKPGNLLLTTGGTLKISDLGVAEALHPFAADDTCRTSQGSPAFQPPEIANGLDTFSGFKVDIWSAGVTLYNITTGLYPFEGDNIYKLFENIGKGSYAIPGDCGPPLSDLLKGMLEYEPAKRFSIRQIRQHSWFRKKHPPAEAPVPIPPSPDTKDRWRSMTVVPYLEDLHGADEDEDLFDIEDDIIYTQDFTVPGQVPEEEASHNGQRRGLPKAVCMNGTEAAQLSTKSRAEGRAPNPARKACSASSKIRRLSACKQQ

[14] = target: Ribosomal protein S6 kinase alpha-5 (Homo sapiens) (UniProt O75582); assay: Selectivity interaction (KinomeScan (DiscoverX)) EUB0001619a RPS6KA5; conditions: at 1 µM
[15] = target: Tyrosine-protein kinase BTK (Homo sapiens, UniProt Q06187); assay: Selectivity interaction (KinomeScan (DiscoverX)) EUB0000607a BTK; conditions: at 10 µM
[16] = target: Ribosomal protein S6 kinase beta-1 (Homo sapiens, UniProt P23443); assay: Selectivity interaction (KinomeScan (DiscoverX)) EUB0000618a RPS6KB1; conditions: at 10 µM
Chain of Ribosomal protein S6 kinase beta-1 (P23443 whole entry, looked up): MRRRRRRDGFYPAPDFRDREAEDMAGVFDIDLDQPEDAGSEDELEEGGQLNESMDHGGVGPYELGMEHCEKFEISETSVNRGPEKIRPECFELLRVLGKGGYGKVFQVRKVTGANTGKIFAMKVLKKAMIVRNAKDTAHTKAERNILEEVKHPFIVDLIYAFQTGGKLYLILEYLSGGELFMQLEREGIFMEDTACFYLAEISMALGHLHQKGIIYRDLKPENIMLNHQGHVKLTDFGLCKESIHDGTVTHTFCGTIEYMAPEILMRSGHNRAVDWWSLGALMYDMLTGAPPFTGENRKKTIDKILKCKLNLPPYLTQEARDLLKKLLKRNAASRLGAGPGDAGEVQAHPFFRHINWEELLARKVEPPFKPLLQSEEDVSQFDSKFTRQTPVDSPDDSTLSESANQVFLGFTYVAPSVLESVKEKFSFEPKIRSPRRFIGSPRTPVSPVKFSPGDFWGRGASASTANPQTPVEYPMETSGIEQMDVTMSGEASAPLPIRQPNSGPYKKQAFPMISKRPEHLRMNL

[17] = target: T2, Mitogen-activated protein kinase kinase kinase 12 (Homo sapiens) (UniProt Q12852); assay: Selectivity interaction (KinomeScan (DiscoverX)) EUB0000655a MAP3K12; conditions: at 10 µM
T2 sequence (whole entry): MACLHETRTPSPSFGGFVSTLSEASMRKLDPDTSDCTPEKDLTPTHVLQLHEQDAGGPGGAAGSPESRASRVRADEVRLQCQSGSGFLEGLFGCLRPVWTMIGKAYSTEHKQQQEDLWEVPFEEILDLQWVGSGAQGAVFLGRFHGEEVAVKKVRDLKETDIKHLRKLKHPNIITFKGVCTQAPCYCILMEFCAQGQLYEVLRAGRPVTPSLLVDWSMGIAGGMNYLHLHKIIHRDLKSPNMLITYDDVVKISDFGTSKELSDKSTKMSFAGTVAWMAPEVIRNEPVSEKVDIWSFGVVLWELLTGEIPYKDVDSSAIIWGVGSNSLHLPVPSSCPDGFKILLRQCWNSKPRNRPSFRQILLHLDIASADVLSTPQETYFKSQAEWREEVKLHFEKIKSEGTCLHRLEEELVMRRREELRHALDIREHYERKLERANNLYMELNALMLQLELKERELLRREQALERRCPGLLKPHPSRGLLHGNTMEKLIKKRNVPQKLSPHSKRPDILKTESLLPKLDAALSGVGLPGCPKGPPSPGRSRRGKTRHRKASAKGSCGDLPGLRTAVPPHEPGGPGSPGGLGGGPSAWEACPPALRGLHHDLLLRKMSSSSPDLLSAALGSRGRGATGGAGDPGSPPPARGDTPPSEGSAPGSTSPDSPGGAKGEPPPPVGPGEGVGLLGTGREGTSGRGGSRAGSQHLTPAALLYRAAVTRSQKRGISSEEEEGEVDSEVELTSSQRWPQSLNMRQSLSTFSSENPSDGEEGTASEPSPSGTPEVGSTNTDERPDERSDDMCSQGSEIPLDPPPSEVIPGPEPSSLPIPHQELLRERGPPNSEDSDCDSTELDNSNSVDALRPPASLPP

[18] = target: Tyrosine-protein kinase Srms (Homo sapiens) (UniProt Q9H3Y6); assay: Selectivity interaction (KinomeScan (DiscoverX)) EUB0000092b SRMS; conditions: at 10 µM
Chain of Tyrosine-protein kinase Srms (Homo sapiens) (Q9H3Y6 whole entry): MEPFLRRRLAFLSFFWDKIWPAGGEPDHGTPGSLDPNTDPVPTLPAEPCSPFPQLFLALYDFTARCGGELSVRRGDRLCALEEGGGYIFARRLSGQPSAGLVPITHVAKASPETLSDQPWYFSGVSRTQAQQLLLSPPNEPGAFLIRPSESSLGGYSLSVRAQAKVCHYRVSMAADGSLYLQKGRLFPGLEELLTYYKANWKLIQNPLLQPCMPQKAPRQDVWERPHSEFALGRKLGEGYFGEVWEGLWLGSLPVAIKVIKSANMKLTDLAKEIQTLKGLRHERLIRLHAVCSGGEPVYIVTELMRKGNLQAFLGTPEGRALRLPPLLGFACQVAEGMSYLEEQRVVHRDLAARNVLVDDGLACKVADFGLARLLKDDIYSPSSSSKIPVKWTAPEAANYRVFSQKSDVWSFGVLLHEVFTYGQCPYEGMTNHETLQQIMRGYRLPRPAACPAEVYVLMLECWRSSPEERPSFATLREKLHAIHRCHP

Chain of Serine/threonine-protein kinase 25 (Homo sapiens) (O00506 whole entry, looked up): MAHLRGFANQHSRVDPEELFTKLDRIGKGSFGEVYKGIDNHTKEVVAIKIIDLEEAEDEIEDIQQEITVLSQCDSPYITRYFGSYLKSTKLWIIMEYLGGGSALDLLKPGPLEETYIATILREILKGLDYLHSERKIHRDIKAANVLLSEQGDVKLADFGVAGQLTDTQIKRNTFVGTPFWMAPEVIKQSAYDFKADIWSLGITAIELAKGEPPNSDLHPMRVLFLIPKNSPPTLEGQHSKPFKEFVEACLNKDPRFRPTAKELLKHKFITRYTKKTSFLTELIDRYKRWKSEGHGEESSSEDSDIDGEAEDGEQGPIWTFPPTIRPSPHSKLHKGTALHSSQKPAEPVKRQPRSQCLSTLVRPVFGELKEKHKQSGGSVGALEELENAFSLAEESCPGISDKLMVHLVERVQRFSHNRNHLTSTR
Chain of Serine/threonine-protein kinase PAK 3 (Homo sapiens) (O75914 whole entry, looked up): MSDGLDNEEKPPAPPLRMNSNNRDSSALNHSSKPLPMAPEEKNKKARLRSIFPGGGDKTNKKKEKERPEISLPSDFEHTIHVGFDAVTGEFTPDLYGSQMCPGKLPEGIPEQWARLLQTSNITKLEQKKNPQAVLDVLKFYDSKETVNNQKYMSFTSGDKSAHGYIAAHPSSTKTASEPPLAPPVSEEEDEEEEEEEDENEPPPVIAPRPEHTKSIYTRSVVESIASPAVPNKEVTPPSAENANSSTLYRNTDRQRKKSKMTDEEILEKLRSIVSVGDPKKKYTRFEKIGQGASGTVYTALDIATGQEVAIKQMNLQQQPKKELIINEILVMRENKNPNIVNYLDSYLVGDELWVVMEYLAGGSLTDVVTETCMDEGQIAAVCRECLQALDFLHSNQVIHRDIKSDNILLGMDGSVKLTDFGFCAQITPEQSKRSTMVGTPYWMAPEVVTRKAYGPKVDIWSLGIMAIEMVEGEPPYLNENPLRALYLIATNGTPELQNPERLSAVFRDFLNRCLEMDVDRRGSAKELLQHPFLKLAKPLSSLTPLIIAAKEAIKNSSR

## COc1cc(N(C)c2ccnc3ccc(C(F)(F)F)cc23)cc(OC)c1OC
[1]
  % binding: 96%

## Nc1cnc(N2CCc3cc(S(=O)(=O)Nc4c(F)cc(Cl)cc4F)cc(N4CCCC4=O)c32)nc1 [TP-020n]
[2]
  % of control: 88%

## Cn1cc(-n2cnc3c(NCc4nc5cc(Cl)c(Cl)cc5[nH]4)nc(N4CCOCC4)nc32)cn1
[3]
  % of control: -5.34%
[4]
  % of control: 0.545%
[5]
  % of control: 17.9%
[6]
  % of inhibition: -13.9%

## O=C(NOC[C@H](O)CO)c1ccc(F)c(F)c1Nc1ccc(I)cc1F
[7]
  % of control: 78%
[8]
  % of control: 56%
[9]
  % of control: 53%
[10]
  % of control: 45%
[11]
  % of control: 57%
[12]
  % of control: 42%

## Cc1cc([C@@H](C)Nc2ccccc2C(=O)O)c2nc(N3CCOCC3)cc(=O)n2c1 [AZD-6482]
[13]
  % of control: 98%

## N#Cc1cccc(-c2c[nH]c3ncnc(N4CCOCC4)c23)c1
[14]
  % of control: 74%

## CNC(=O)Nc1ccc(-c2nc(N3CC4CCC(C3)O4)c3cnn(C4CCC5(CC4)OCCO5)c3n2)cc1
[15]
  % of control: 90%

## O[C@H]1CC[C@H](Nc2ncc3nc(Nc4c(F)cc(F)cc4F)n([C@H]4CCOC4)c3n2)CC1
[16]
  % of control: 80%

## CN(C)CCOc1ccc(-c2nc(-c3ccncc3)c(-c3ccc4c(c3)CC/C4=N\O)[nH]2)cc1
[17]
  % of control: 49%

## CCC(=O)N1CCN(c2ccc(-n3c(=O)ccc4cnc5ccc(-c6cnc7ccccc7c6)cc5c43)cc2C(F)(F)F)CC1
[18]
  % of control: 92%
